This note sets out measurements from patent publication US20230322776A1, “NEW ARYL-PYRIDO-PYRIMIDIN-ONE DERIVATIVES” (Hoffmann-La Roche Inc., priority 2020, published 2023).

Bounds are passed on as bounds.

The target in one experiment is BRAF V660E (Homo sapiens, UniProt P15056, V600E). The experiment in a line: KD BRAF V660E (Table 1; no method described). It counts as binding.
Another experiment addresses BRAF (Homo sapiens, UniProt P15056). The experiment in a line: KD BRAF (Table 1; no method described). It counts as binding.
Experiment [1] concerns A375 cells (V600E mutated BRAF), ERK phospho-T202/Y204. Nature of the experiment: HTRF assay for P-ERK determination in A375 cells (BRAF inhibition). It counts as cell-based. The conditions noted are these: Homo sapiens, A-375, 1 hour drug incubation, DMSO = 100%, 10 μM Dabrafenib = 0%, top concentration 10 μM, read-out: P-ERK_A375: IC50. An excerpt:
(§1) A375 is a cellular cancer model expressing V600E mutated BRAF and HCT116 a cellular cancer model expressing WT BRAF. First generation BRAF inhibitors such as e.g. dabrafenib induce a paradox effect on tumour cells in that they inhibit the growth of V600E mutated BRAF cells (such as e.g. A375), while they activate growth in WT BRAF cells (such as e.g. HCT 116). ERK 1,2 phosphorylation (terminal member of the phosphorylation cascade of the MAPK pathway) is hereafter reported as main readout for the activation status of the MAPK pathway. DMEM no-phenol red medium supplemented with L-glutamine was purchased from (Thermo Fisher Scientific). Fetal bovine serum (FBS) was purchased from VWR. Advanced ERK phospho-T202/Y204 kit—10,000 tests was purchased from Cisbio cat #64AERPEH. A375 (catalog #CRL-1619) and HCT116 (catalog #CCL-247) cells were originally obtained from American type Culture Collection (ATCC) and banked by the Roche repository. 384-Well microplates ultized were purchased from Greiner Bio-One, 384-well, (With Lid, HiBase, Low volume cat 784-080).
(§2) HTRF Assay for P-ERK Determination in A375 or HCT116 Cells
(§3) Prior to the assay, A375 and HCT116 cell lines are maintained in DMEM no-phenol red medium supplemented with 10% fetal bovine serum (FBS). Following compound treatment, P-ERK levels are determined by measuring FRET fluorescence signal induced by selective binding of two antibodies provided in the mentioned kit (Cisbio cat #64AERPEH) on ERK protein when phosphorylated at Thr202/Tyr204. Briefly, 8000 cells/well in 12 μl media/well are plated in the 384-well plate and left overnight in the incubator (at 37° C. with 5% CO2-humidified atmosphere), the following day the plate is treated in duplicate with test compounds, dabrafenib and PLX8394 (the latter two as controls) at the following final drug concentrations: 10 μM, 3 μM, 1 μM, 0.3 μM, 0.1 μM, 0.03 μM, 0.01 μM, 0.003 μM and 0.001 μM. All wells are subjected to DMSO normalization and drug incubation occurs for 1 hour. Then, 4 μl of a 4× lysis buffer supplied with the kit are added to the wells, the plate is then centrifuged for 30 second (3000 rpm) and incubated on a plate shaker for 1 h at rt.
(§4) At the end of the incubation 4 μl/well of advanced P-ERK antibody solution (prepared according to manufacturer's instruction) followed by 4 μl/well of criptate P-ERK antibody solution (prepared according to manufacturer's instruction) (Cisbio cat #64AERPEH) are added to test wells.
(§5) In order to allow proper data normalization, control wells non drug treated reported in the following table are always included in each plate (according to manufacturer's instruction):
(§6) The plate is then centrifuged at 3000 rpm for 30 seconds, sealed to prevent evaporation and incubated overnight in the dark at room temperature. The plate is then analyzed and fluorescence emission value collected through a Pherastast FSX (BMG Labtech) apparatus at […]. The obtained fluorescence values are processed according to the formula Ratio=[…]*10000 then the average of the ratio on the blank is subtracted to all values.
Data are normalized in the case of A375 cells (BRAF inhibition) considering the average of the ratio (blank subtracted) derived by DMSO only treated cells as 100% and by considering the average of the ratio (blank subtracted) derived by 10 μM Dabrafenib treated cells as 0%. Mean of the normalized points are fitted with sigmoidal curve and IC50 values are determined.

The subject of experiment [2] is HCT116 cells (WT BRAF), ERK phospho-T202/Y204. Nature of the experiment: HTRF assay for P-ERK determination in HCT116 cells (BRAF activation, paradox). It counts as cell-based. The following applies: for EC50: Homo sapiens, HCT-116, HCT116 cells, 1 hour drug incubation, activation relative to maximum Dabrafenib-mediated activation (100%), top concentration 10 μM, read-out: P-ERK_HCT-116: EC50—50PCT; for Fold Selectivity HCT-116 EC50-50/ A375: ratio of P-ERK HCT-116 EC50-50PCT to P-ERK A375 IC50.
Text: as §1, §2, §3, §4, §5, §6
Data are normalized in the case of HCT116 cells (BRAF activation) considering the average of the ratio (blank subtracted) derived by DMSO only treated cells as 0% and by considering the average of the ratio (blank subtracted) derived by Dabrafenib treated cells at the concentration which provides the highest signal as 100%. Individual points are fitted with either sigmoidal or bell shape curves, the percentage of activation compared to maximum Dabrafenib-mediated activation is determined.
On the technique in general: In TR-FRET formats the signal depends on donor and acceptor labels being close together.

Chain of BRAF (P15056 whole entry): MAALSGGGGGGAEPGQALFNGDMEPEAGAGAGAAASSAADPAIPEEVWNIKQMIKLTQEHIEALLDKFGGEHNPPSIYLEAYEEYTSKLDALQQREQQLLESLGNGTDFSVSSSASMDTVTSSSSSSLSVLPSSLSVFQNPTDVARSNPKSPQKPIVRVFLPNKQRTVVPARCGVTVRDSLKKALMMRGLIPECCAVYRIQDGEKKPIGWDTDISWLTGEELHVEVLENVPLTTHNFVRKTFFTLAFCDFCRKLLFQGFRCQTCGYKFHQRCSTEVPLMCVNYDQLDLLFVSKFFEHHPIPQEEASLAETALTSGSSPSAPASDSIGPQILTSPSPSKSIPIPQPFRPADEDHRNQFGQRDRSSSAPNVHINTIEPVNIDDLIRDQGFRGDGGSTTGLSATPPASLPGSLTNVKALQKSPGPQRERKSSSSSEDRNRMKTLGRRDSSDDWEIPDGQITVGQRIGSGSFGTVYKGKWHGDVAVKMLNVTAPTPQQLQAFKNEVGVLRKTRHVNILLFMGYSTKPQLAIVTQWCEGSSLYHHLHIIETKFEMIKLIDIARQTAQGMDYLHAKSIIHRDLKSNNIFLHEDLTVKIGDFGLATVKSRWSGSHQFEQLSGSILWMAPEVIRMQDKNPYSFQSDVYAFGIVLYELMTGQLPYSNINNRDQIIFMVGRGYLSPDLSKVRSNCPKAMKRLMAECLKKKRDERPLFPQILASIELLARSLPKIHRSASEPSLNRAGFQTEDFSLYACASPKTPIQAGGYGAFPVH
Chain of BRAF V660E (P15056 2-766 V600E): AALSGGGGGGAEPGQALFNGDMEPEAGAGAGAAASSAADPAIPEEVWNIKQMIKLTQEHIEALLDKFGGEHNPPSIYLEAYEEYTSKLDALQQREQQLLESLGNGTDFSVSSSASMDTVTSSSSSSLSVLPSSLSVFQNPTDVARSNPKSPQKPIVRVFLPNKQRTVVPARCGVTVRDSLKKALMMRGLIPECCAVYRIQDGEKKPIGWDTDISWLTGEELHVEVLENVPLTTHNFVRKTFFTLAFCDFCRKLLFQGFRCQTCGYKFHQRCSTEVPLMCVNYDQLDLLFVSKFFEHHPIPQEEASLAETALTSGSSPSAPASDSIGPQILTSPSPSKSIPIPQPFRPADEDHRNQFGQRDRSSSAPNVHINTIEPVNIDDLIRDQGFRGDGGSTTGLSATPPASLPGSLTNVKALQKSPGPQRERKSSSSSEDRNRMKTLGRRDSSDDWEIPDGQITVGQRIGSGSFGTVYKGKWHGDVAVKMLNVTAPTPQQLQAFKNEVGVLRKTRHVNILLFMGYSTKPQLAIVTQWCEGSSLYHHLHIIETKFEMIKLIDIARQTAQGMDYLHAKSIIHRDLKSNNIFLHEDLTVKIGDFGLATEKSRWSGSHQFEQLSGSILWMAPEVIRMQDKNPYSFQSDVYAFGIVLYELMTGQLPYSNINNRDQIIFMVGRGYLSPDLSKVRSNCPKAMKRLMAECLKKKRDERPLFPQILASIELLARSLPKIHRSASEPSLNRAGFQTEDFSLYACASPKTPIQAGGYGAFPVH

On to `Cn1c(=O)c(-c2c(F)ccc(NS(=O)(=O)N3CC[C@@H](F)C3)c2F)cc2cnc(NC3CCCC3)nc21` [Example 7, (3R)-N-[3-[2-(cyclopentylamino)-8-methyl-7-oxopyrido[2,3-d]pyrimidin-6-yl]-2,4-difluorophenyl]-3-fluoropyrrolidine-1-sulfonamide], for which the Kd (usually the constant that tells how readily two partners part at equilibrium) on BRAF V660E was 282 nM. Also, the Kd at BRAF was 91.2 nM. Also, in experiment [1], the half-maximal inhibitory concentration (IC50) (as a rule, the concentration at which inhibition is half-maximal) was 30.8 nM. For the same compound, in experiment [2], the EC50 – broadly, the midpoint of the concentration-response curve – came to 2170 nM and the “Fold Selectivity HCT-116 EC50-50/ A375” value amounted to 70.5.

`Cn1c(=O)c(-c2c(F)ccc(NS(=O)(=O)N3CCCC3)c2F)cc2cnc(NCCC3CCN(C(=O)OC(C)(C)C)CC3)nc21` [Example 8, tert-butyl 4-[2-[[6-[2,6-difluoro-3-(pyrrolidin-1-ylsulfonylamino)phenyl]-8-methyl-7-oxopyrido[2,3-d]pyrimidin-2-yl]amino]ethyl]piperidine-1-carboxylate] registered a Kd at BRAF V660E of 314 nM. Besides, the affinity at BRAF, expressed as Kd, was 261 nM. Also, the IC50 in experiment [1] worked out at 241 nM. Further, in experiment [2], the EC50 is 9760 nM and the “Fold Selectivity HCT-116 EC50-50/ A375” value amounted to 40.5.

For the compound `CCN(C)S(=O)(=O)Nc1ccc(F)c(-c2cc3cnc(NCCOCCOCCO)nc3n(C)c2=O)c1F` [Example 9, 6-[3-[[ethyl(methyl)sulfamoyl]amino]-2,6-difluorophenyl]-2-[2-[2-(2-hydroxyethoxy)ethoxy]ethylamino]-8-methyl-7-oxopyrido[2,3-d]pyrimidine], the Kd at BRAF V660E came to 417 nM. In addition, binding at BRAF was characterised by a dissociation constant (Kd) of 136 nM. Also, the IC50 in experiment [1] was 153 nM. Moreover, in experiment [2], the EC50 is no less than 10000 nM and the “Fold Selectivity HCT-116 EC50-50/ A375” value is given as greater than 65.4.

On BRAF V660E, `Cn1c(=O)c(-c2c(F)ccc(NS(=O)(=O)N3CC[C@@H](F)C3)c2F)cc2cnc(NCC3CC3)nc21` [Example 10, (3R)-N-[3-[2-(cyclopropylmethylamino)-8-methyl-7-oxopyrido[2,3-d]pyrimidin-6-yl]-2,4-difluorophenyl]-3-fluoropyrrolidine-1-sulfonamide] gave a Kd of 37.5 nM. Moreover, the affinity at BRAF, expressed as Kd, was 19 nM. For the same compound, in experiment [1], the IC50 is 9.9 nM. In addition, in experiment [2], the EC50 was 645 nM and the “Fold Selectivity HCT-116 EC50-50/ A375” value is reported as 65.1.

For `CCN(C)S(=O)(=O)Nc1ccc(F)c(-c2cc3cnc(NCC4CC4)nc3n(C)c2=O)c1F` [Example 11, 2-(cyclopropylmethylamino)-6-[3-[[ethyl(methyl)sulfamoyl]amino]-2,6-difluorophenyl]-8-methyl-7-oxopyrido[2,3-d]pyrimidine], the dissociation constant Kd on BRAF V660E was found to be 441 nM. The affinity on BRAF, expressed as Kd, was 159 nM. In addition, the IC50 in experiment [1] is 71 nM. In experiment [2], the EC50 is no less than 10000 nM and the “Fold Selectivity HCT-116 EC50-50/ A375” value was greater than 140.9.

The compound `CN(C1CC1)S(=O)(=O)Nc1ccc(F)c(-c2cc3cnc(NCC4CC4)nc3n(C)c2=O)c1F` [Example 12, 2-(cyclopropylmethylamino)-6-[3-[[cyclopropyl(methyl)sulfamoyl]amino]-2,6-difluorophenyl]-8-methyl-7-oxopyrido[2,3-d]pyrimidine] gave a Kd at BRAF V660E of 487 nM. In addition, the Kd on BRAF was found to be 84.9 nM. In addition, the concentration for half-maximal inhibition (IC50) in experiment [1] was 109 nM. Also, in experiment [2], the EC50 came out at 2220 nM and the “Fold Selectivity HCT-116 EC50-50/ A375” value is reported as 20.4.

In the case of `Cn1c(=O)c(-c2c(F)ccc(NS(=O)(=O)C3CCCC3)c2F)cc2cnc(NCCC3CCN(C(=O)OC(C)(C)C)CC3)nc21` [Example 13, tert-butyl 4-[2-[[6-[3-(cyclopentylsulfonylamino)-2,6-difluorophenyl]-8-methyl-7-oxopyrido[2,3-d]pyrimidin-2-yl]amino]ethyl]piperidine-1-carboxylate], the affinity at BRAF V660E, expressed as Kd, was 440 nM. The same compound gave a dissociation constant Kd at BRAF of 350 nM. Further, the IC50 in experiment [1] was 272 nM. In experiment [2], the concentration for a half-maximal effect (EC50) amounted to 9460 nM and the “Fold Selectivity HCT-116 EC50-50/ A375” value is on record as 34.7.

On BRAF V660E, `Cl.Cn1c(=O)c(-c2c(F)ccc(NS(=O)(=O)N3CC[C@@H](F)C3)c2F)cc2cnc(NCCC3CCNCC3)nc21` [Example 14, (3R)—N-[2,4-difluoro-3-[8-methyl-7-oxo-2-(2-piperidin-4-ylethylamino)pyrido[2,3-d]pyrimidin-6-yl]phenyl]-3-fluoropyrrolidine-1-sulfonamide hydrochloride] registered a Kd of 107 nM. The compound also came in with a dissociation constant (Kd) on BRAF of 37.7 nM. For the same compound, the IC50 in experiment [1] came to 790 nM. Moreover, in experiment [2], the EC50 is no less than 10000 nM and the “Fold Selectivity HCT-116 EC50-50/ A375” value was 12.7.

As to `Cl.Cn1c(=O)c(-c2c(F)ccc(NS(=O)(=O)N3CC[C@@H](F)C3)c2F)cc2cnc(NCCOCCN)nc21` [Example 15, (3R)-N-[3-[2-[2-(2-aminoethoxy)ethylamino]-8-methyl-7-oxopyrido[2,3-d]pyrimidin-6-yl]-2,4-difluorophenyl]-3-fluoropyrrolidine-1-sulfonamide hydrochloride], the Kd at BRAF V660E was 194 nM; on BRAF it was 81.7 nM. In experiment [1], the IC50 stood at 617 nM. In experiment [2], the EC50 was no less than 10000 nM. Moreover, in experiment [2], the “Fold Selectivity HCT-116 EC50-50/ A375” value was 16.2.

Take `CNCCCNc1ncc2cc(-c3c(F)ccc(NS(=O)(=O)N4CC[C@@H](F)C4)c3F)c(=O)n(C)c2n1.Cl` [Example 16, (3R)-N-[2,4-difluoro-3-[8-methyl-2-[3-(methylamino)propylamino]-7-oxopyrido[2,3-d]pyrimidin-6-yl]phenyl]-3-fluoropyrrolidine-1-sulfonamide hydrochloride]: the Kd at BRAF V660E amounted to 296 nM; at BRAF, 148 nM. For the same compound, in experiment [1], the IC50 was 687 nM. In addition, in experiment [2], the EC50 was no less than 10000 nM. Further, the “Fold Selectivity HCT-116 EC50-50/ A375” value in experiment [2] came out at 14.6.

On BRAF V660E, `CCN(C)S(=O)(=O)Nc1ccc(F)c(-c2cc3cnc(NCCCNC)nc3n(C)c2=O)c1F.Cl` [Example 17, 6-[3-[[ethyl(methyl)sulfamoyl]amino]-2,6-difluorophenyl]-8-methyl-2-[3-(methylamino)propylamino]-7-oxopyrido[2,3-d]pyrimidine hydrochloride] returned a Kd of 385 nM. The Kd at BRAF was determined as 168 nM. The IC50 in experiment [1] worked out at 1260 nM. In experiment [2], the EC50 turned out to be 7520 nM and the “Fold Selectivity HCT-116 EC50-50/ A375” value stood at 6.0.

Consider `Cl.Cn1c(=O)c(-c2c(F)ccc(NS(=O)(=O)N3CC[C@@H](F)C3)c2F)cc2cnc(NCCCC3CCNCC3)nc21` [Example 18, (3R)-N-[2,4-difluoro-3-[8-methyl-7-oxo-2-(3-piperidin-4-ylpropylamino)pyrido[2,3-d]pyrimidin-6-yl]phenyl]-3-fluoropyrrolidine-1-sulfonamide hydrochloride], for which the Kd at BRAF V660E is 71.6 nM. At BRAF, this compound gave a Kd of 25.5 nM. Also, the IC50 in experiment [1] came to 207 nM. Moreover, in experiment [2], the EC50 amounted to 5870 nM and the “Fold Selectivity HCT-116 EC50-50/ A375” value worked out at 28.3.
